Broadly, the IC50 is the concentration that gives 50% inhibition.

SMILES strings stand for the structures.

The values below come from patent US8202885B2, “Bridged six-membered ring compounds” (Actelion Pharmaceuticals Ltd., priority 2007, dated 2012).

The experiment concerns human Cav3.1 Cav3.2 or Cav3.3 channel. Briefly: In vitro assay T channel (FLIPR calcium fluorescence). The conditions noted are these: HEK293 cells expressing human Cav3.1, Cav3.2 or Cav3.3; 10 mM Ca2+-induced fluo-4 fluorescence; determined up to 10 μM; read-out: T channel antagonistic activity IC50. It counts as cell-based. In short, it runs like this: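 IC50 (nM) is the antagonist concentration halving the area under the fluorescence peak evoked by 10 mM Ca2+, relative to vehicle, with testing up to 10 μM. Fluo-4-loaded HEK293 cells expressing each human Cav3 subtype received compound 3 min before Ca2+ addition (TEA-based buffer, pH 7.2); signal monitored 8 min at 2 s intervals.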
With `CC(C)C(=O)O[C@@]1(CCN(C)CCCc2cncc3ccccc23)C[C@H]2CC[C@@H]1C=C2c1ccccc1` (relative stereo) [Example 48A, rac-Isobutyric acid (1R*,2R*,4R*)-2-{2-[(3-isoquinolin-4-yl-propyl)-methyl-amino]-ethyl}-5-phenyl-bicyclo[2.2.2]oct-5-en-2-yl ester], the IC50 is more than 10000 nM.

For the compound `CN(CCCc1cnc2ccccc2c1)CC[C@]1(O)C[C@H]2CC[C@@H]1C=C2c1ccccc1` (relative stereo) [Example 49, rac-(1R*,2R*,4R*)-2-{2-[Methyl-(3-quinolin-3-yl-propyl)-amino]-ethyl}-5-phenyl-bicyclo[2.2.2]oct-5-en-2-ol], the IC50 is more than 10000 nM.

Take `CC(C)C(=O)O[C@@]1(CCN(C)CCCc2cnc3ccccc3c2)C[C@H]2CC[C@@H]1C=C2c1ccccc1` (relative stereo) [Example 49A, rac-Isobutyric acid (1R*,2R*,4R*)-2-{2-[methyl-(3-quinolin-3-yl-propyl)-amino]-ethyl}-5-phenyl-bicyclo[2.2.2]oct-5-en-2-yl ester]: the IC50 came out at 8500 nM.

For the compound `CN(CCCc1ccnc2ccccc12)CC[C@]1(O)C[C@H]2CC[C@@H]1C=C2c1ccccc1` (relative stereo) [Example 50, rac-(1R*,2R*,4R*)-2-{2-[Methyl-(3-quinolin-4-yl-propyl)-amino]-ethyl}-5-phenyl-bicyclo[2.2.2]oct-5-en-2-ol], the concentration for half-maximal inhibition (IC50) is more than 10000 nM.

Take `CC(C)C(=O)O[C@@]1(CCN(C)CCCc2ccnc3ccccc23)C[C@H]2CC[C@@H]1C=C2c1ccccc1` (relative stereo) [Example 50A, rac-Isobutyric acid (1R*,2R*,4R*)-2-{2-[methyl-(3-quinolin-4-yl-propyl)-amino]-ethyl}-5-phenyl-bicyclo[2.2.2]oct-5-en-2-yl ester]: the IC50 was more than 10000 nM.

Consider `COCC(C)(COC)C(=O)N(C)CCCN(C)CC[C@]1(O)C[C@H]2CC[C@@H]1C=C2c1ccccc1` (relative stereo) [Example 51, rac-N-(3-{[2-((1R*,2R*,4R*)-2-Hydroxy-5-phenyl-bicyclo[2.2.2]oct-5-en-2-yl)-ethyl]-methyl-amino}-propyl)-3-methoxy-2-methoxymethyl-2,N-dimethyl-propionamide], for which the IC50 was more than 10000 nM.

In the case of `COCC(C)(COC)C(=O)N(C)CCCN(C)CC[C@]1(OC(=O)C(C)C)C[C@H]2CC[C@@H]1C=C2c1ccccc1` (relative stereo) [Example 51A, rac-Isobutyric acid (1R*,2R*,4R*)-2-[2-({3-[(3-methoxy-2-methoxymethyl-2-methyl-propionyl)-methyl-amino]-propyl}-methyl-amino)-ethyl]-5-phenyl-bicyclo[2.2.2]oct-5-en-2-yl ester], the IC50 was found to be 4430 nM.

On to `CCCC1=C(C)[C@H]2CC[C@@H]1C[C@]2(CCN(C)CCCN(C)C(=O)C(C)(COC)COC)OC(=O)C(C)C` (relative stereo) [Example 52A, rac-Isobutyric acid (1R*,2R*,4R*)-2-[2-({3-[(3-methoxy-2-methoxymethyl-2-methyl-propionyl)-methyl-amino]-propyl}-methyl-amino)-ethyl]-6-methyl-5-propyl-bicyclo[2.2.2]oct-5-en-2-yl ester], for which the IC50 was determined as 4210 nM.

For `COCC(C)(COC)C(=O)N(C)CCCN(C)CC[C@]1(OC(=O)C(C)C)C[C@H]2CC[C@@H]1C(c1ccccc1)=C2C` (relative stereo) [Example 53A, rac-Isobutyric acid (1R*,2R*,4R*)-2-[2-({3-[(3-methoxy-2-methoxymethyl-2-methyl-propionyl)-methyl-amino]-propyl}-methyl-amino)-ethyl]-5-methyl-6-phenyl-bicyclo[2.2.2]oct-5-en-2-yl ester], the IC50 came out at 688 nM.

On to `COCC(C)(COC)C(=O)N(C)CCCN(C)CC[C@@]1(OC(=O)C(C)C)C[C@H]2CC[C@@H]1C(c1ccccc1)=C2C` (relative stereo) [Example 53C, rac-Isobutyric acid (1R*,2S*,4R*)-2-[2-({3-[(3-methoxy-2-methoxymethyl-2-methyl-propionyl)-methyl-amino]-propyl}-methyl-amino)-ethyl]-5-methyl-6-phenyl-bicyclo[2.2.2]oct-5-en-2-yl ester], for which the IC50 came out at 906 nM.

As for `CC(=O)Nc1cccc2[nH]c(CCCN(C)CC[C@]3(OC(=O)C(C)C)C[C@H]4CC[C@@H]3C=C4c3ccccc3)nc12` (relative stereo) [Example 56A, rac-Isobutyric acid (1R*,2R*,4R*)-2-(2-{[3-(4-acetylamino-1H-benzoimidazol-2-yl)-propyl]-methyl-amino}-ethyl)-5-phenyl-bicyclo[2.2.2]oct-5-en-2-yl ester], the IC50 was 2520 nM.

Turning to `CC(C)C(=O)O[C@@]1(CCN(C)CCCc2nc3c(Cl)cccc3[nH]2)C[C@H]2CC[C@@H]1C=C2c1ccccc1` (relative stereo) [Example 57A, rac-Isobutyric acid (1R*,2R*,4R*)-2-(2-{[3-(4-chloro-1H-benzoimidazol-2-yl)-propyl]-methyl-amino}-ethyl)-5-phenyl-bicyclo[2.2.2]oct-5-en-2-yl ester], the IC50 worked out at 1980 nM.

As to `COc1ccc(Cl)c2[nH]c(CCCN(C)CC[C@]3(OC(=O)C(C)C)C[C@H]4CC[C@@H]3C=C4c3ccccc3)nc12` (relative stereo) [Example 58A, rac-Isobutyric acid (1R*,2R*,4R*)-2-(2-{[3-(7-chloro-4-methoxy-1H-benzoimidazol-2-yl)-propyl]-methyl-amino}-ethyl)-5-phenyl-bicyclo[2.2.2]oct-5-en-2-yl ester], the concentration for half-maximal inhibition (IC50) came to 762 nM.

For `COc1cc(OC)c2nc(CCCN(C)CC[C@]3(OC(=O)C(C)C)C[C@H]4CC[C@@H]3C=C4c3ccccc3)[nH]c2c1` (relative stereo) [Example 59A, rac-Isobutyric acid (1R*,2R*,4R*)-2-(2-{[3-(4,6-dimethoxy-1H-benzoimidazol-2-yl)-propyl]-methyl-amino}-ethyl)-5-phenyl-bicyclo[2.2.2]oct-5-en-2-yl ester], the IC50 is 952 nM.

Consider `CC(C)C(=O)O[C@@]1(CCN(C)CCCc2nc3c(C(F)(F)F)cc(C(F)(F)F)cc3[nH]2)C[C@H]2CC[C@@H]1C=C2c1ccccc1` (relative stereo) [Example 62A, rac-Isobutyric acid (1R*,2R*,4R*)-2-(2-{[3-(4,6-bis-trifluoromethyl-1H-benzoimidazol-2-yl)-propyl]-methyl-amino}-ethyl)-5-phenyl-bicyclo[2.2.2]oct-5-en-2-yl ester], for which the half-inhibitory concentration (IC50) was found to be 469 nM.

Turning to `COCCOc1cccc2[nH]c(CCCN(C)CC[C@]3(OC(=O)C(C)C)C[C@H]4CC[C@@H]3C=C4c3ccccc3)nc12` (relative stereo) [Example 63A, rac-Isobutyric acid (1R*,2R*,4R*)-2-[2-({3-[4-(2-methoxy-ethoxy)-1H-benzoimidazol-2-yl]-propyl}-methyl-amino)-ethyl]-5-phenyl-bicyclo[2.2.2]oct-5-en-2-yl ester], the IC50 is 1440 nM.

For the compound `COc1cc(C)c2[nH]c(CCCN(C)CC[C@]3(OC(=O)C(C)C)C[C@H]4CC[C@@H]3C=C4c3ccccc3)nc2c1OC` (relative stereo) [Example 64A, rac-Isobutyric acid (1R*,2R*,4R*)-2-(2-{[3-(4,5-dimethoxy-7-methyl-1H-benzoimidazol-2-yl)-propyl]-methyl-amino}-ethyl)-5-phenyl-bicyclo[2.2.2]oct-5-en-2-yl ester], the IC50 amounted to 914 nM.

With `COc1ccc(C)c2nc(CCCN(C)CC[C@]3(OC(=O)C(C)C)C[C@H]4CCC[C@@H]3C=C4c3ccccc3)[nH]c12` (relative stereo) [Example 66A, rac-Isobutyric acid (1R*,5R*,6R*)-6-(2-{[3-(7-methoxy-4-methyl-1H-benzoimidazol-2-yl)-propyl]-methyl-amino}-ethyl)-8-phenyl-bicyclo[3.2.2]non-8-en-6-yl ester], the IC50 is 680 nM.

As for `CC(C)C(=O)O[C@@]1(CCN(C)CCCc2nc3c(OC(F)(F)F)cccc3[nH]2)C[C@H]2CC[C@@H]1C=C2c1ccccc1` (relative stereo) [Example 68A, rac-Isobutyric acid (1R*,2R*,4R*)-2-(2-{methyl-[3-(4-trifluoromethoxy-1H-benzoimidazol-2-yl)-propyl]-amino}-ethyl)-5-phenyl-bicyclo[2.2.2]oct-5-en-2-yl ester], the half-maximal inhibitory concentration (IC50) amounted to 839 nM.

Take `COc1ccc(OC)c2[nH]c(CCCN(C)CC[C@]3(OC(=O)C(C)C)C[C@H]4CCC[C@@H]3C=C4c3ccccc3)nc12` (relative stereo) [Example 69A, rac-Isobutyric acid (1R*,5R*,6R*)-6-(2-{[3-(4,7-dimethoxy-1H-benzoimidazol-2-yl)-propyl]-methyl-amino}-ethyl)-8-phenyl-bicyclo[3.2.2]non-8-en-6-yl ester]: the IC50 worked out at 727 nM.

As for `Cc1nc(CCCN(C)CC[C@]2(OC(=O)C(C)C)C[C@H]3CC[C@@H]2C=C3c2ccccc2)[nH]c1-c1ccccc1` (relative stereo) [Example 71A, rac-Isobutyric acid (1R*,2R*,4R*)-2-(2-{methyl-[3-(4-methyl-5-phenyl-1H-imidazol-2-yl)-propyl]-amino}-ethyl)-5-phenyl-bicyclo[2.2.2]oct-5-en-2-yl ester], the IC50 worked out at 1450 nM.

Take `COc1ccccc1-c1cnc(CCCN(C)CC[C@]2(OC(=O)C(C)C)C[C@H]3CC[C@@H]2C=C3c2ccccc2)[nH]1` (relative stereo) [Example 72A, rac-Isobutyric acid (1R*,2R*,4R*)-2-[2-({3-[5-(2-methoxy-phenyl)-1H-imidazol-2-yl]-propyl}-methyl-amino)-ethyl]-5-phenyl-bicyclo[2.2.2]oct-5-en-2-yl ester]: the IC50 is 2290 nM.

`CC(C)C(=O)O[C@@]1(CCN(C)CCCc2nc3ccccc3[nH]2)C[C@@H]2C=C[C@H]1CC2` (relative stereo) [Example 75A, rac-Isobutyric acid (1R*,2R*,4R*)-2-(2-{[3-(1H-benzoimidazol-2-yl)-propyl]-methyl-amino}-ethyl)-bicyclo[2.2.2]oct-5-en-2-yl ester]: the IC50 came to 1780 nM.
